Numbered stars: 1 amine (or outer) side, 2 acyl side, 3 side chain; on linkers, the order of the positions; unused ones are H or OH. Bridge positions count the residues as written; N and C are the ends. Square brackets hold non-standard residues; d marks the D form. Peptide text beside a SMILES is read from it. * marks the point of attachment. hPhe(3,5-F2-4-CF3) = N[C@@H](CCc1cc(F)c(C(F)(F)F)c(F)c1)C(=O)O; hPhe(3-Cl-4-CF3) = N[C@@H](CCc1ccc(C(F)(F)F)c(Cl)c1)C(=O)O; hPhe(3-F,4-CF3) = N[C@@H](CCc1ccc(C(F)(F)F)c(F)c1)C(=O)O; NEtPhe(4-CF3) = CCN[C@@H](Cc1ccc(C(F)(F)F)cc1)C(=O)O; NMePhe(4-CF3) = CN[C@@H](Cc1ccc(C(F)(F)F)cc1)C(=O)O; hPhe(4-CF3) = N[C@@H](CCc1ccc(C(F)(F)F)cc1)C(=O)O; X37 = CC(C)(C)NC(=O)COC[C@H](CC(=O)[*:1])N[*:2]; NEtPhe(4-Me) = CCN[C@@H](Cc1ccc(C)cc1)C(=O)O; NMePhe(4-Cl) = CN[C@@H](Cc1ccc(Cl)cc1)C(=O)O; NMedβ3hAla = C[C@H](CC(=O)[*:2])N(C)[*:1]; NMeGly(cPent) = CN[C@H](C(=O)O)C1CCCC1; NMeAla(cPr) = CN[C@@H](CC1CC1)C(=O)O; NMeCha = CN[C@@H](CC1CCCCC1)C(=O)O; Hyp = O=C(O)[C@@H]1C[C@@H](O)CN1; NMeChg = CN[C@H](C(=O)O)C1CCCCC1; NMeF = CN[C@@H](Cc1ccccc1)C(=O)O; NMeI = CC[C@H](C)[C@H](NC)C(=O)O; NMeD = CN[C@@H](CC(=O)O)C(=O)O; NMeL = CN[C@@H](CC(C)C)C(=O)O; Cba = N[C@@H](CC1CCC1)C(=O)O; Tle = CC(C)(C)[C@H](N)C(=O)O; NMeV = CN[C@H](C(=O)O)C(C)C; d(β3hA) = C[C@@H](N)CC(=O)O; Azetidin(1-yl) = C1CN(*)C1; NMeS = CN[C@@H](CO)C(=O)O; NMeA = CN[C@@H](C)C(=O)O; Piperidide = C1CCN(*)CC1; Pyrrolidide = C1CCN(*)C1; Ac5c = NC1(C(=O)O)CCCC1; Aze = O=C(O)[C@@H]1CCN1; Ac4c = NC1(C(=O)O)CCC1; Cyclobutyl = C1CC(*)C1; Aib = CC(C)(N)C(=O)O; NEtG = CCNCC(=O)O; Sar = CNCC(=O)O; Propyl = CCC*
molecular target: protein-protein interaction between Kras and SOS1 (biotin-tagged human Kras loaded with GDP, His-tagged human SOS1) (Homo sapiens (Human), UniProt P01116, G12D); assay: Protein-protein interaction inhibition between Kras and SOS1 (KrasG12D-SOS PPI) using AlphaScreen; format: biochemical; settings: AlphaScreen; biotin-tagged human Kras loaded with GDP, His-tagged human SOS1; read-out: KRAS G12D-SOS PPI IC50;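 note: kras produced in E. coli, Ni-coupled donor beads and streptavidin acceptor beads, excitation 680 nm with emission detected at 520–620 nm via singlet oxygen transfer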

SMILES | IC50
CCCOC[C@H]1C(=O)N(C)CC(=O)N[C@@H](CCc2ccc(C(F)(F)F)c(F)c2)C(=O)N2CCC[C@H]2C(=O)NC2(CCCC2)C(=O)N(C)[C@@H]([C@@H](C)CC)C(=O)N(C)[C@H](C)CC(=O)N(C)[C@@H](CC(C)C)C(=O)N[C@@H]([C@@H](C)CC)C(=O)N(C)[C@@H](C)C(=O)N2CC[C@H]2C(=O)N1C [Compound 694] (cyclo([Ac5c][NMeI][NMedβ3hAla][NMeL]I[NMeA][Aze][NMeS](Propyl)[Sar][hPhe(3-F,4-CF3)]P)) | 14 nM
CC[C@H](C)[C@@H]1NC(=O)[C@H](CC(C)C)N(C)C(=O)C[C@@H](C(=O)N2CCCC2)NC(=O)[C@H](C2CCCC2)N(C)C(=O)C2(CCCC2)NC(=O)[C@@H]2CCCN2C(=O)[C@H](CCc2ccc(C(F)(F)F)c(Cl)c2)NC(=O)CN(C)C(=O)[C@H](CC2CCCCC2)N(C)C(=O)[C@@H]2CCN2C(=O)[C@H](C)N(C)C1=O [Compound 700] ([NMeL]I[NMeA][Aze][NMeCha][Sar][hPhe(3-Cl-4-CF3)]P[Ac5c][NMeGly(cPent)]D-Pyrrolidide; lactam N-11) | 5 nM
CCO[C@@H]1C[C@H]2C(=O)NC3(CCC3)C(=O)N(C)[C@@H](C3CCCCC3)C(=O)N(C)[C@H](C)CC(=O)N(C)[C@@H](CC(C)C)C(=O)N[C@@H]([C@@H](C)CC)C(=O)N(C)[C@@H](C)C(=O)N3CC[C@H]3C(=O)N(CC)[C@@H](Cc3ccc(C)cc3)C(=O)N(C)CC(=O)N[C@@H](CCc3cc(F)c(C(F)(F)F)c(F)c3)C(=O)N2C1 [Compound 724] (cyclo([Ac4c][NMeChg][NMedβ3hAla][NMeL]I[NMeA][Aze][NEtPhe(4-Me)][Sar][hPhe(3,5-F2-4-CF3)][Hyp](Et))) | 24 nM
CC[C@H](C)[C@@H]1NC(=O)[C@H](CC(C)C)N(C)C(=O)C[C@@H](C(=O)N2CCC2)N(C)C(=O)[C@H](C2CCCC2)N(C)C(=O)C2(CCCC2)NC(=O)[C@@H]2CCCN2C(=O)[C@H](CCc2ccc(C(F)(F)F)c(Cl)c2)NC(=O)CN(CC)C(=O)[C@H](CC2CCCCC2)N(C)C(=O)[C@@H]2CCN2C(=O)[C@H](C)N(C)C1=O [Compound 726] ([NMeL]I[NMeA][Aze][NMeCha][NEtG][hPhe(3-Cl-4-CF3)]P[Ac5c][NMeGly(cPent)][NMeD]-{Azetidin(1-yl)}; lactam N-11) | 1.3 nM
CC(C)C[C@H]1C(=O)N[C@@H](CC2CCC2)C(=O)N(C)[C@@H](C)C(=O)N2CC[C@H]2C(=O)N(C)[C@@H](CC2CCCCC2)C(=O)N(C)CC(=O)N[C@@H](CCc2ccc(C(F)(F)F)c(Cl)c2)C(=O)N2CCC[C@H]2C(=O)NC2(CCCC2)C(=O)N(C)[C@@H](C(C)C)C(=O)N(C)[C@H](C(=O)N2CCCCC2)CC(=O)N1C [Compound 733] ([NMeL][Cba][NMeA][Aze][NMeCha][Sar][hPhe(3-Cl-4-CF3)]P[Ac5c][NMeV][NMeD]-Piperidide; lactam N-11) | 51 nM
CC[C@H](C)[C@@H]1NC(=O)[C@H](C(C)C)N(C)C(=O)C[C@@H](C)NC(=O)[C@H](CC(C)C)N(C)C(=O)C(C)(C)NC(=O)[C@H](CC(C)C)N(C)C(=O)[C@H](CCc2ccc(C(F)(F)F)c(Cl)c2)NC(=O)CN(C)C(=O)[C@H](Cc2ccc(Cl)cc2)N(C)C(=O)CN(C)C(=O)CN(C)C1=O [Compound 740] (cyclo([Aib][NMeL][d(β3hA)][NMeV]I[Sar][Sar][NMePhe(4-Cl)][Sar][hPhe(3-Cl-4-CF3)][NMeL])) | 11 nM
CCO[C@@H]1C[C@H]2C(=O)NC3(CCC3)C(=O)N(C)[C@@H](C3CCCCC3)C(=O)N(C)[C@H](C)CC(=O)N(C)[C@@H](CC(C)C)C(=O)N[C@@H]([C@@H](C)CC)C(=O)N[C@@H](C)C(=O)N3CC[C@H]3C(=O)N(CC)[C@@H](Cc3ccc(C(F)(F)F)cc3)C(=O)N(C)CC(=O)N[C@@H](CCc3ccc(C(F)(F)F)c(Cl)c3)C(=O)N2C1 [Compound 743] (cyclo(A[Aze][NEtPhe(4-CF3)][Sar][hPhe(3-Cl-4-CF3)][Hyp](Et)[Ac4c][NMeChg][NMedβ3hAla][NMeL]I)) | 40 nM
CC[C@H](C)[C@@H]1NC(=O)[C@H](C)N(C)C(=O)C[C@@H](C)NC(=O)[C@H](C2CCCC2)N(C)C(=O)C2(CCCC2)NC(=O)[C@@H]2CCCN2C(=O)[C@H](CCc2ccc(C(F)(F)F)c(Cl)c2)NC(=O)CN(C)C(=O)[C@H](Cc2ccc(C(F)(F)F)cc2)N(C)C(=O)[C@@H]2CCCN2C(=O)CN(C)C1=O [Compound 749] (cyclo([Ac5c][NMeGly(cPent)][d(β3hA)][NMeA]I[Sar]P[NMePhe(4-CF3)][Sar][hPhe(3-Cl-4-CF3)]P)) | 2.8 nM
CC[C@H](C)[C@@H]1NC(=O)[C@H](COC2CCC2)N(C)C(=O)C[C@@H](C(=O)N2CCCCC2)N(C)C(=O)[C@H](C(C)C)N(C)C(=O)C2(CCCC2)NC(=O)[C@@H]2CCCN2C(=O)[C@H](CCc2ccc(C(F)(F)F)c(Cl)c2)NC(=O)CN(C)C(=O)[C@H](CC2CCCCC2)N(C)C(=O)[C@@H]2CCN2C(=O)[C@H](C)N(C)C1=O [Compound 755] ([NMeS](Cyclobutyl)I[NMeA][Aze][NMeCha][Sar][hPhe(3-Cl-4-CF3)]P[Ac5c][NMeV][NMeD]-Piperidide; lactam N-11) | 5.6 nM
CC[C@H](C)[C@@H]1NC(=O)[C@H](C(C)C)N(C)C(=O)C[C@@H](COCC(=O)NC(C)(C)C)NC(=O)[C@H](CC(C)C)N(C)C(=O)C2(CCCC2)NC(=O)[C@H](CC(C)C)N(C)C(=O)[C@H](CCc2ccc(C(F)(F)F)cc2)NC(=O)CN(C)C(=O)[C@H](Cc2ccc(Cl)cc2)N(C)C(=O)CN(C)C(=O)CN(C)C1=O [Compound 759] ([NMeV]I[Sar][Sar][NMePhe(4-Cl)][Sar][hPhe(4-CF3)][NMeL][Ac5c][NMeL]; linker N-C via X37) | 160 nM
CC[C@H](C)[C@@H]1NC(=O)[C@H](C)N(C)C(=O)C[C@@H](C)NC(=O)[C@H](CC(C)C)N(C)C(=O)[C@H](Cc2ccccc2)N(C)C(=O)[C@H](C(C)(C)C)NC(=O)[C@H](CCc2ccc(C(F)(F)F)cc2)NC(=O)CN(C)C(=O)[C@H](Cc2ccc(Cl)cc2)N(C)C(=O)CN(C)C(=O)CN(C)C1=O [Compound 764] (cyclo(I[Sar][Sar][NMePhe(4-Cl)][Sar][hPhe(4-CF3)][Tle][NMeF][NMeL][d(β3hA)][NMeA])) | 83 nM
CC[C@H](C)[C@@H]1NC(=O)[C@H](CC2CC2)N(C)C(=O)C[C@@H](C)NC(=O)[C@H](C(C)C)N(C)C(=O)C2(CCCC2)NC(=O)[C@@H]2CCCN2C(=O)[C@H](CCc2ccc(C(F)(F)F)c(Cl)c2)NC(=O)CN(C)C(=O)[C@H](CC2CCCCC2)N(C)C(=O)[C@@H]2CCN2C(=O)[C@H](C)N(C)C1=O [Compound 771] (cyclo([Ac5c][NMeV][d(β3hA)][NMeAla(cPr)]I[NMeA][Aze][NMeCha][Sar][hPhe(3-Cl-4-CF3)]P)) | 25 nM
CCCOC[C@H]1C(=O)N(C)CC(=O)N[C@@H](CCc2ccc(C(F)(F)F)c(F)c2)C(=O)N2CCC[C@H]2C(=O)NC2(CCCC2)C(=O)N(C)[C@@H](C2CCCC2)C(=O)N(C)[C@H](C)CC(=O)N(C)[C@@H](CC(C)C)C(=O)N[C@@H]([C@@H](C)CC)C(=O)N(C)[C@@H](C)C(=O)N2CC[C@H]2C(=O)N1C [Compound 776] (cyclo([Ac5c][NMeGly(cPent)][NMedβ3hAla][NMeL]I[NMeA][Aze][NMeS](Propyl)[Sar][hPhe(3-F,4-CF3)]P)) | 7.3 nM

— patent publication US20240148821A1, “PHARMACEUTICAL USE OF CYCLIC PEPTIDE COMPOUND” (CHUGAI SEIYAKU KABUSHIKI KAISHA, priority 2021, published 2024)
